Data published in patent publication US20220119354A1, “DIAMINO-SUBSTITUTED PYRIDINES AND PYRIMIDINES AS HERBICIDES” (FMC Corporation, priority 2019, published 2022).

Tests used:
Format in all cases: in vivo
[1] = system: barnyardgrass (Echinochloa crus-galli); assay: Test A preemergence, barnyardgrass; conditions: 0 to 100 scale, 0 is no effect, 100 is complete control
How it was run: (§1)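 Visual injury scored against untreated controls about 10 d after treatment, scale 0 = no effect to 100 = complete control. Compounds, formulated with surfactant in a non-phytotoxic solvent, went on as directed soil spray preemergence or onto 2–10 cm, one- to two-leaf plants postemergence; loam–sand soil, greenhouse.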

[2] = system: kochia (Kochia scoparia); assay: Test A preemergence, kochia; conditions: 0 to 100 scale, 0 is no effect, 100 is complete control
How it was run: as §1

[3] = system: ragweed (common ragweed, Ambrosia elatior); assay: Test A preemergence, ragweed; conditions: 0 to 100 scale, 0 is no effect, 100 is complete control
How it was run: as §1

[4] = system: ryegrass, Italian (Lolium multiflorum); assay: Test A preemergence, Italian ryegrass; conditions: 0 to 100 scale, 0 is no effect, 100 is complete control
How it was run: as §1

[5] = system: foxtail, giant (Setaria faberii); assay: Test A preemergence, giant foxtail; conditions: 0 to 100 scale, 0 is no effect, 100 is complete control
How it was run: as §1

[6] = system: pigweed (Amaranthus retroflexus); assay: Test A preemergence, pigweed; conditions: 0 to 100 scale, 0 is no effect, 100 is complete control
How it was run: as §1

[7] = system: barnyardgrass (Echinochloa crus-galli); assay: Test A postemergence, barnyardgrass; conditions: 0 to 100 scale, 0 no effect, 100 complete control
How it was run: as §1

[8] = system: kochia (Kochia scoparia); assay: Test A postemergence, kochia; conditions: 0 to 100 scale, 0 no effect, 100 complete control
How it was run: as §1

[9] = system: ragweed (common ragweed, Ambrosia elatior); assay: Test A postemergence, ragweed; conditions: 0 to 100 scale, 0 no effect, 100 complete control
How it was run: as §1

[10] = system: ryegrass, Italian (Lolium multiflorum); assay: Test A postemergence, Italian ryegrass; conditions: 0 to 100 scale, 0 no effect, 100 complete control
How it was run: as §1

[11] = system: foxtail, giant (Setaria faberii); assay: Test A postemergence, giant foxtail; conditions: 0 to 100 scale, 0 no effect, 100 complete control
How it was run: as §1

[12] = system: pigweed (Amaranthus retroflexus); assay: Test A postemergence, pigweed; conditions: 0 to 100 scale, 0 no effect, 100 complete control
How it was run: as §1

[13] = system: wheat (Triticum aestivum); assay: Test A postemergence, wheat; conditions: 0 to 100 scale, 0 no effect, 100 complete control
How it was run: as §1

[14] = system: corn (Zea mays); assay: Test A postemergence, corn; conditions: 0 to 100 scale, 0 no effect, 100 complete control
How it was run: as §1

[15] = system: blackgrass (Alopecurus myosuroides); assay: Test A postemergence, blackgrass; conditions: 0 to 100 scale, 0 no effect, 100 complete control
How it was run: as §1

[16] = system: galium (catchweed bedstraw, Galium aparine); assay: Test A postemergence, galium; conditions: 0 to 100 scale, 0 no effect, 100 complete control
How it was run: as §1

[17] = system: rice (Oryza sativa); assay: Test B flooded paddy test, rice; conditions: Flood, 250 g ai/ha, applied to paddy water, 2-leaf stage, visual evaluation after 13 to 15 d
How it was run: (§2)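 Pots flooded to 3 cm above the soil when treated, with test compound added straight to the water and the flood maintained. Treated plants were at the 2-leaf stage and stayed 13–15 d in greenhouse. Response versus untreated controls scored visually from 0 (no effect) to 100 (complete control).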

[18] = system: sedge, umbrella (small-flower umbrella sedge, Cyperus difformis); assay: Test B flooded paddy test, umbrella sedge; conditions: Flood, 250 g ai/ha, applied to paddy water, 2-leaf stage, visual evaluation after 13 to 15 d
How it was run: as §2

[19] = system: ducksalad (Heteranthera limosa); assay: Test B flooded paddy test, ducksalad; conditions: Flood, 250 g ai/ha, applied to paddy water, 2-leaf stage, visual evaluation after 13 to 15 d
How it was run: as §2

[20] = system: barnyardgrass (Echinochloa crus-galli); assay: Test B flooded paddy test, barnyardgrass; conditions: Flood, 250 g ai/ha, applied to paddy water, 2-leaf stage, visual evaluation after 13 to 15 d
How it was run: as §2

SMILES	Barnyardgrass plant response rating ([1]; 125 g ai/ha)	Barnyardgrass plant response rating ([1]; 500 g ai/ha)	Kochia plant response rating ([2]; 125 g ai/ha)	Kochia plant response rating ([2]; 500 g ai/ha)	Ragweed plant response rating ([3]; 125 g ai/ha)	Ragweed plant response rating ([3]; 500 g ai/ha)	Ryegrass, Italian plant response rating ([4]; 125 g ai/ha)	Ryegrass, Italian plant response rating ([4]; 500 g ai/ha)	Foxtail, Giant plant response rating ([5]; 125 g ai/ha)	Foxtail, Giant plant response rating ([5]; 500 g ai/ha)	Pigweed plant response rating ([6]; 125 g ai/ha)	Pigweed plant response rating ([6]; 500 g ai/ha)	Plant response rating, Barnyardgrass ([7]; 125 g ai/ha)	Plant response rating, Barnyardgrass ([7]; 500 g ai/ha)	Plant response rating, Kochia ([8]; 125 g ai/ha)	Plant response rating, Kochia ([8]; 500 g ai/ha)	Plant response rating, Ragweed ([9]; 125 g ai/ha)	Plant response rating, Ragweed ([9]; 500 g ai/ha)	Plant response rating, Ryegrass, Italian ([10]; 125 g ai/ha)	Plant response rating, Ryegrass, Italian ([10]; 500 g ai/ha)	other results
Nc1nc(N[C@@H](c2coc3ccccc23)C2CC2)ncc1C(F)(F)F [Compound 79, N2-[(R)-3-benzofuranylcyclopropylmethyl]-5-(trifluoromethyl)-2,4-pyrimidinediamine]	90	100	0	0	100	100	100	100	100	100	90	100	70	100	90	90	80	90	60	80	Plant response rating, Foxtail, Giant ([11]; 125 g ai/ha): 60; Plant response rating, Foxtail, Giant ([11]; 500 g ai/ha): 90; Plant response rating, Pigweed ([12]; 125 g ai/ha): 100; Plant response rating, Pigweed ([12]; 500 g ai/ha): 100; Plant response rating, Wheat ([13]; 125 g ai/ha): 0; Plant response rating, Wheat ([13]; 500 g ai/ha): 20; Plant response rating, Corn ([14]; 125 g ai/ha): 0; Plant response rating, Corn ([14]; 500 g ai/ha): 70; Plant response rating, Blackgrass ([15]; 125 g ai/ha): 60; Plant response rating, Blackgrass ([15]; 500 g ai/ha): 90; Plant response rating, Galium ([16]; 125 g ai/ha): 70; Plant response rating, Galium ([16]; 500 g ai/ha): 90; Plant response rating, Rice (0 to 100 scale, 0 is no effect, 100 is complete control) [17]: 10; Plant response rating, Sedge, Umbrella (0 to 100 scale, 0 is no effect, 100 is complete control) [18]: 95; Plant response rating, Ducksalad (0 to 100 scale, 0 is no effect, 100 is complete control) [19]: 98; Plant response rating, Barnyardgrass (0 to 100 scale, 0 is no effect, 100 is complete control) [20]: 55
CC[C@@H](Nc1ncc(C(F)(F)F)c(N)n1)c1coc2ccccc12 [Compound 80]	90	100	90	100	100	100	70	100	90	100	90	100	40	100	80	90	90	90	0	90	Plant response rating, Foxtail, Giant ([11]; 125 g ai/ha): 0; Plant response rating, Foxtail, Giant ([11]; 500 g ai/ha): 0; Plant response rating, Pigweed ([12]; 125 g ai/ha): 100; Plant response rating, Pigweed ([12]; 500 g ai/ha): 100; Plant response rating, Wheat ([13]; 125 g ai/ha): 30; Plant response rating, Wheat ([13]; 500 g ai/ha): 30; Plant response rating, Corn ([14]; 125 g ai/ha): 20; Plant response rating, Corn ([14]; 500 g ai/ha): 50; Plant response rating, Blackgrass ([15]; 125 g ai/ha): 0; Plant response rating, Blackgrass ([15]; 500 g ai/ha): 70; Plant response rating, Galium ([16]; 125 g ai/ha): 70; Plant response rating, Galium ([16]; 500 g ai/ha): 90; Plant response rating, Rice (0 to 100 scale, 0 is no effect, 100 is complete control) [17]: 10; Plant response rating, Sedge, Umbrella (0 to 100 scale, 0 is no effect, 100 is complete control) [18]: 95; Plant response rating, Ducksalad (0 to 100 scale, 0 is no effect, 100 is complete control) [19]: 85; Plant response rating, Barnyardgrass (0 to 100 scale, 0 is no effect, 100 is complete control) [20]: 90
